# Measurements reported in paper PMC6906472, “Purification and biological activity of natural variants synthesized by tridecaptin M gene cluster and in vitro drug-kinetics of this antibiotic class” (Scientific Reports, 2019).
# Read-outs that look alike come from different tables or passages of the source. Square brackets hold non-standard residues; d marks the D form. Peptide text beside a SMILES is read from it. * marks the point of attachment. d(aIle) = CC[C@H](C)[C@@H](N)C(=O)O; X1 = CC[C@H](C)CCCCC(=O)*; dDab = NCC[C@@H](N)C(=O)O; βNA = c1ccc2cc(N*)ccc2c1; Dab = NCC[C@H](N)C(=O)O
# Experiments:
# [1] = test system: A. baumannii ATCC 19606
# Method: (§1) MICs for all the compounds were determined by broth microdilution assay, according to CLSI guidelines[16] as described previously. Haemolysis experiments were performed with fresh rabbit RBCs[11]. All the compounds were tested at a concentration of 128 µg/ml. To obtain rabbit blood, the experiments and the protocols were in accordance with the ethical standards of the Institutional Animal Ethics Committee (IAEC) of the Institute of Microbial Technology approved (Approval no. IAEC/17/11) by Committee for the Purpose of Control And Supervision of Experiments on Animals (CPCSEA, Government of India).
# [2] = test system: E. coli CF-23 (mcr-1)
# Method: as §1
# [3] = test system: K. pneumoniae AH-16 (Col-R)
# Method: as §1
# [4] = test system: K. pneumoniae AH-3 (Col-R)
# Method: as §1
# [5] = test system: K. pneumoniae ATCC 700603
# Method: as §1
# [6] = test system: K. pneumoniae P3R (M1-R); conditions: broth microdilution, CLSI guidelines; M1-resistant mutant of ATCC 700603
# Method: as §1
# [7] = test system: P. aeruginosa ATCC 27853
# Method: as §1
# [8] = test system: Proteus mirabilis MTCC 1429
# Method: as §1
# [9] = test system: Serratia marcescens MTCC 97
# Method: as §1
# [10] = test system: A. baumannii ATCC 19606; assay: microbe, parasite or virus in culture
# Method: (§2) Acinetobacter baumannii ATCC 19606, Pseudomonas aeruginosa ATCC 27853, K. pneumoniae ATCC 700603, K. pneumoniae P3R, K. pneumoniae GMCH 13 and K. pneumoniae GMCH 15 were grown in CA-MHB and adjusted to ~4 × 10^5 CFU/ml. 100 µl of fresh CA-MHB containing carbonyl cyanide m-chlorophenyl hydrazine (CCCP) or phenylalanine-arginine beta-naphthylamide (PAβN) (at a final concentration of their 1/4th of MIC or 1/8th of MIC) was added to the wells of a 96-well flat bottom plate. Tridecaptin M was diluted in a 2-fold manner. 100 µl of culture was added and the plates were incubated for 16 to 18 h at 37 °C and observed for MICs. The fold modulation in MICs of tridecaptin M was calculated by comparing the results in the presence or absence of CCCP and PAβN.
# [11] = test system: K. pneumoniae GMCH 13; assay: microbe, parasite or virus in culture
# Method: as §2
# [12] = test system: K. pneumoniae GMCH 15; assay: microbe, parasite or virus in culture
# Method: as §2
# [13] = test system: K. pneumoniae P3R (Tri-M Resistant); assay: microbe, parasite or virus in culture
# Method: as §2
# [14] = test system: P. aeruginosa ATCC 27853; assay: microbe, parasite or virus in culture
# Method: as §2
# [15] = test system: K. pneumoniae ATCC 700603; assay: Synergy assay with efflux pump inhibitors; type: cell-based
# Method: as §2
# [16] = test system: efflux in A. baumannii ATCC 19606; conditions: CCCP 4 mg/L, Nile Red 5 μM, energization with 50 mM glucose, fluorescence 552/636 nm
# Method: To assess the effect of CCCP on efflux in A. baumannii ATCC 19606, the Nile Red efflux assay was used[17]. The overnight grown culture was centrifuged at 3000 g for 10 min at room temperature. The pellet was resuspended in 20 mM potassium phosphate buffer (pH 7.0) containing 1 mM MgCl2 and washed twice with the same buffer. The cells were adjusted to an OD660 of 1.0 and the aliquots were transferred to a glass tubes containing CCCP at a final concentration of 4 mg/L. After 15 min, Nile Red was added to a final concentration of 5 μM, and the cell suspension was incubated in a shaker (140 rpm, 37 °C) for 3 h. The cells were kept at room temperature for 60 min and centrifuged for 5 min at 3000 g. The supernatant was discarded and the cell pellet was resuspended in assay buffer. Next, Nile Red efflux was immediately triggered by rapid energization with 50 mM glucose and the fluorescence was recorded at excitation and emission wavelength 552 nm and 636 nm, respectively, over a period of 5 min.
# [17] = broth microdilution, CLSI guidelines
# [18] = ~4 × 10^5 CFU/ml, CA-MHB, 16 to 18 h, 37 °C
Molecule,Peptide MIC ([1]; ATCC 19606) [µg/mL],Peptide MIC [2] [µg/mL],Peptide MIC [3] [µg/mL],Peptide MIC [4] [µg/mL],Peptide MIC [5] [µg/mL],Peptide MIC [6] [µg/mL],Peptide MIC ([7]; ATCC 27853) [µg/mL],Peptide MIC [8] [µg/mL],Peptide MIC [9] [µg/mL],other results
CC[C@H](C)CCCCC(=O)NCC(=O)N[C@H](CCN)C(=O)NCC(=O)N[C@H](CO)C(=O)N[C@H](Cc1c[nH]c2ccccc12)C(=O)N[C@@H](CO)C(=O)N[C@@H](CCN)C(=O)N[C@H](CCN)C(=O)N[C@H](C(=O)N[C@@H](CCC(=O)O)C(=O)N[C@H](C(=O)N[C@@H](C(=O)N[C@@H](CO)C(=O)O)C(C)C)C(C)C)[C@@H](C)CC [M2] (X1-G[dDab]G[dS][dW]S[Dab][dDab]IEV[dV]S-OH),>32,16,>16,8,8,>32,>32,>16,>16,–
CC[C@H](C)CCCCC(=O)NCC(=O)N[C@H](CCN)C(=O)NCC(=O)N[C@H](CO)C(=O)N[C@H](Cc1ccccc1)C(=O)N[C@@H](CO)C(=O)N[C@@H](CCN)C(=O)N[C@H](CCN)C(=O)N[C@H](C(=O)N[C@@H](CCC(=O)O)C(=O)N[C@H](C(=O)N[C@@H](C(=O)N[C@@H](CO)C(=O)O)C(C)C)[C@@H](C)CC)[C@@H](C)CC [M5] (X1-G[dDab]G[dS][dF]S[Dab][dDab]IEI[dV]S-OH),>32,16,16,16,16,16,>32,16,8,–
CC[C@H](C)CCCCC(=O)NCC(=O)N[C@H](CCN)C(=O)NCC(=O)N[C@H](CO)C(=O)N[C@H](Cc1c[nH]c2ccccc12)C(=O)N[C@@H](CO)C(=O)N[C@@H](CCN)C(=O)N[C@H](CCN)C(=O)N[C@H](C(=O)N[C@@H](CCC(=O)O)C(=O)N[C@H](C(=O)N[C@@H](C(=O)N[C@@H](CO)C(=O)O)C(C)C)[C@@H](C)CC)[C@@H](C)CC [M6] (X1-G[dDab]G[dS][dW]S[Dab][dDab]IEI[dV]S-OH),>32,4,2,4,4,16,>32,>16,16,–
CC[C@H](C)CCCCC(=O)NCC(=O)N[C@H](CCN)C(=O)NCC(=O)N[C@H](CO)C(=O)N[C@H](Cc1c[nH]c2ccccc12)C(=O)N[C@@H](CO)C(=O)N[C@@H](CCN)C(=O)N[C@H](CCN)C(=O)N[C@H](C(=O)N[C@@H](CCC(=O)O)C(=O)N[C@H](C(=O)N[C@@H](C(=O)N[C@@H](CO)C(=O)O)[C@@H](C)CC)[C@@H](C)CC)C(C)C [M7] (X1-G[dDab]G[dS][dW]S[Dab][dDab]VEI[d(aIle)]S-OH),>32,16,8,8,8,16,>32,>16,8,–
CC[C@H](C)CCCCC(=O)NCC(=O)N[C@H](CCN)C(=O)NCC(=O)N[C@H](CO)C(=O)N[C@H](Cc1ccccc1)C(=O)N[C@@H](CO)C(=O)N[C@@H](CCN)C(=O)N[C@H](CCN)C(=O)N[C@H](C(=O)N[C@@H](CCC(=O)O)C(=O)N[C@H](C(=O)N[C@@H](C(=O)N[C@@H](CO)C(=O)O)[C@@H](C)CC)[C@@H](C)CC)[C@@H](C)CC [M8] (X1-G[dDab]G[dS][dF]S[Dab][dDab]IEI[d(aIle)]S-OH),–,4,4,8,4,128,–,>16,16,"Peptide MIC [1, 17]: 128 µg/mL; Peptide MIC [7, 17]: >128 µg/mL"
"NC(N)=NCCC[C@H](NC(=O)[C@@H](N)Cc1ccccc1)C(=O)Nc1ccc2ccccc2c1 [PAβN, phenylalanine-arginine beta-naphthylamide, reference compound] (H-Phe-Arg-βNA)",–,–,–,–,–,–,–,–,–,"MIC ([10]; Acinetobacter baumannii, ATCC19606, read-out: Intrinsic Activity, MIC): 64 µg/mL; MIC ([11]; Klebsiella pneumoniae, GMCH13, read-out: Intrinsic Activity, MIC): 256 µg/mL; MIC ([12]; Klebsiella pneumoniae, GMCH15, read-out: Intrinsic Activity, MIC): 256 µg/mL; MIC ([13]; Klebsiella pneumoniae, read-out: Intrinsic Activity, MIC): 256 µg/mL; MIC ([14]; Pseudomonas aeruginosa, ATCC27853, read-out: Intrinsic Activity, MIC): 64 µg/mL; MIC ([15]; Klebsiella pneumoniae, ATCC700603, read-out: Intrinsic Activity, MIC): 256 µg/mL"
"carbonyl cyanide m-chlorophenyl hydrazine [CCCP, reference compound]",–,–,–,–,–,–,–,–,–,"Intrinsic Activity; MIC [10, 18]: 64 µg/mL; Intrinsic Activity; MIC [11, 18]: 32 µg/mL; Intrinsic Activity; MIC [12, 18]: 64 µg/mL; Intrinsic Activity; MIC [13, 18]: 128 µg/mL; Intrinsic Activity; MIC [14, 18]: 64 µg/mL; Intrinsic Activity; MIC [15, 18]: 128 µg/mL; effect on efflux of Nile red dye [16]: inhibited the efflux of Nile red dye"
